Like-named read-outs stand apart in the source and are kept apart here.
Assays:
Assay in all cases: Kinase selectivity, P33-radiolabeled assay
Type in all cases: biochemical
Conditions in all cases: 10 μM ATP
KHS/MAP4K5 = target: T1, KHS/MAP4K5 (Homo sapiens, UniProt Q9Y4K4)
T1 construct: purchased Reaction Biology Corp
Summary of the method: (§1)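 Percent residual kinase activity versus DMSO is reported. Conditions: compound at 10 μM, ATP at 10 μM, n = 2.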

SGK2 = target: T2, SGK2 (Homo sapiens, UniProt Q9HBY8)
T2 construct: purchased Reaction Biology Corp
T2 sequence (Q9HBY8 1-367): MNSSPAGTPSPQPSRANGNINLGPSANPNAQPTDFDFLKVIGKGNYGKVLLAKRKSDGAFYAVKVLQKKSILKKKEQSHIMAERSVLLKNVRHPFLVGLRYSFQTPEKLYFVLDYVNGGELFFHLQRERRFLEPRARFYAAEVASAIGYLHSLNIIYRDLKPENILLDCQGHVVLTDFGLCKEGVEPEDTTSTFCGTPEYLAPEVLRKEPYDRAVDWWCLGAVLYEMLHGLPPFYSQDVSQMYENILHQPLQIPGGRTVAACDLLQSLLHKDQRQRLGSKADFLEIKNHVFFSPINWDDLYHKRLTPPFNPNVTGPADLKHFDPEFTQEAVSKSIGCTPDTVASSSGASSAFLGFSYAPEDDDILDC
Summary of the method: as §1

MEK1 = target: T3, MEK1 (Homo sapiens, UniProt Q02750)
T3 construct: purchased Reaction Biology Corp
Summary of the method: as §1

PKCepsilon = target: T4, PKCepsilon (Homo sapiens, UniProt Q02156)
T4 construct: purchased Reaction Biology Corp
T4 sequence (Q02156 1-737): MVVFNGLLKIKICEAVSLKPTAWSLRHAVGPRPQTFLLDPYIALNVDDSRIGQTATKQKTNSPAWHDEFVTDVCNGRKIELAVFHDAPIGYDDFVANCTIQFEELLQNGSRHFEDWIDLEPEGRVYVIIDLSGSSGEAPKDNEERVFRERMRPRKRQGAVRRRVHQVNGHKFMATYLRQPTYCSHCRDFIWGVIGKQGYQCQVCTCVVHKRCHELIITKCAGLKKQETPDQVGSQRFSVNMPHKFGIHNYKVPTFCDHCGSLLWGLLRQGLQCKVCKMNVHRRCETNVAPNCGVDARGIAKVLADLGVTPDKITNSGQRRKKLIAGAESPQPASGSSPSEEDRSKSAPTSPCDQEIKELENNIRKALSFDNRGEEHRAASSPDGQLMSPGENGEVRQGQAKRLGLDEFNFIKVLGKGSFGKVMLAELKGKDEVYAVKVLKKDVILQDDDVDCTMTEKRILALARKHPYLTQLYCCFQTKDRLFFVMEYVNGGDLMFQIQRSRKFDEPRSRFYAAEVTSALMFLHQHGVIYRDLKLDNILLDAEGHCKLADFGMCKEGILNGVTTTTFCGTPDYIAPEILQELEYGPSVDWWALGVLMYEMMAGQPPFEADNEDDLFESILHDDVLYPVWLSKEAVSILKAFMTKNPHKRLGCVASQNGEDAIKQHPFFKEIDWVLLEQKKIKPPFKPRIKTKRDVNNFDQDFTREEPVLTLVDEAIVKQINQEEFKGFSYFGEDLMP
Summary of the method: as §1

DCAMKL2 = target: T5, DCAMKL2 (Homo sapiens, UniProt Q8N568)
T5 construct: purchased Reaction Biology Corp
T5 sequence (Q8N568 1-766): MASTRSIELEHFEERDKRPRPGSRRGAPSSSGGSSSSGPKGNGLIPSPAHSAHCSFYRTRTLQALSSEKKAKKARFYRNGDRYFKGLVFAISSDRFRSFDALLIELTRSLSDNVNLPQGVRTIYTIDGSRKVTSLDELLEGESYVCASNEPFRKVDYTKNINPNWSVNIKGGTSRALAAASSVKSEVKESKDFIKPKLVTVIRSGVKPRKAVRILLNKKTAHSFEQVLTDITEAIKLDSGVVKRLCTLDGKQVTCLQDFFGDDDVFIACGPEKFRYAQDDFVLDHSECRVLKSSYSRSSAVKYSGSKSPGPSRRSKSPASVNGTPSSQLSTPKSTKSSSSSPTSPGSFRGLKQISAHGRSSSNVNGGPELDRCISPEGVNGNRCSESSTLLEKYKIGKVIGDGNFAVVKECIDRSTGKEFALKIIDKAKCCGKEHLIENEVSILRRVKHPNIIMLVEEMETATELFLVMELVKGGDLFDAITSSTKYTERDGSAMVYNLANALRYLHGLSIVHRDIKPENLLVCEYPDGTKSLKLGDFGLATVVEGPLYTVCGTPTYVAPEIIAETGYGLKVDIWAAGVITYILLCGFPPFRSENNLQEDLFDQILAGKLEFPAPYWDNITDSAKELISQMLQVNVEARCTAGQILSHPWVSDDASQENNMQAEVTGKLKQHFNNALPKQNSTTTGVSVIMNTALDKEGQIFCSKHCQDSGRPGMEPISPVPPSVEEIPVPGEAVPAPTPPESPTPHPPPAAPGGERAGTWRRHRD
Summary of the method: as §1

HIPK3 = target: T6, HIPK3 (Homo sapiens, UniProt Q9H422)
T6 construct: purchased Reaction Biology Corp
Summary of the method: as §1

FGFR3 = target: T7, FGFR3 (Homo sapiens, UniProt P22607)
T7 construct: purchased Reaction Biology Corp
Summary of the method: as §1

BTK = target: T8, BTK (Homo sapiens, UniProt Q06187)
T8 construct: purchased Reaction Biology Corp
Summary of the method: as §1

[1] = read-out: % Enzyme Activity (relative to DMSO controls) AVG
[2] = read-out: % Enzyme Activity (relative to DMSO controls) Data 1
[3] = read-out: % Enzyme Activity (relative to DMSO controls) Data 2

T8 sequence (Q06187 whole entry): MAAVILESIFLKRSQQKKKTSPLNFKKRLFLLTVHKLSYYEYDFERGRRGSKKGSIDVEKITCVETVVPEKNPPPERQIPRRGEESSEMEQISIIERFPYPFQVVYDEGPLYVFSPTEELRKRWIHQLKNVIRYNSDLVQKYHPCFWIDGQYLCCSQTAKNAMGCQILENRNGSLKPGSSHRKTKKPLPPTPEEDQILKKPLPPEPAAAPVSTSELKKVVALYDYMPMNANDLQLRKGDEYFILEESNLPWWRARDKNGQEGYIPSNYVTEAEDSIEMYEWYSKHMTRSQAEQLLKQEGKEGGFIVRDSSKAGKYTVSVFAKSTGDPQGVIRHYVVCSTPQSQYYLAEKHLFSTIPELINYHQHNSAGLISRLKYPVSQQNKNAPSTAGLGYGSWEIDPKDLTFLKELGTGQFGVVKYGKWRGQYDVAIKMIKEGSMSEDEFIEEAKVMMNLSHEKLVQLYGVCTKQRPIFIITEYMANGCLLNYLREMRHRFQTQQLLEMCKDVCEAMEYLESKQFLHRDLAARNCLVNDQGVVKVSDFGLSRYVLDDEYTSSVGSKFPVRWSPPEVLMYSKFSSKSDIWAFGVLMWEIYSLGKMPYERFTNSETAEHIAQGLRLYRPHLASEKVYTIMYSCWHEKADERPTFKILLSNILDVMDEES
T6 sequence (Q9H422 whole entry): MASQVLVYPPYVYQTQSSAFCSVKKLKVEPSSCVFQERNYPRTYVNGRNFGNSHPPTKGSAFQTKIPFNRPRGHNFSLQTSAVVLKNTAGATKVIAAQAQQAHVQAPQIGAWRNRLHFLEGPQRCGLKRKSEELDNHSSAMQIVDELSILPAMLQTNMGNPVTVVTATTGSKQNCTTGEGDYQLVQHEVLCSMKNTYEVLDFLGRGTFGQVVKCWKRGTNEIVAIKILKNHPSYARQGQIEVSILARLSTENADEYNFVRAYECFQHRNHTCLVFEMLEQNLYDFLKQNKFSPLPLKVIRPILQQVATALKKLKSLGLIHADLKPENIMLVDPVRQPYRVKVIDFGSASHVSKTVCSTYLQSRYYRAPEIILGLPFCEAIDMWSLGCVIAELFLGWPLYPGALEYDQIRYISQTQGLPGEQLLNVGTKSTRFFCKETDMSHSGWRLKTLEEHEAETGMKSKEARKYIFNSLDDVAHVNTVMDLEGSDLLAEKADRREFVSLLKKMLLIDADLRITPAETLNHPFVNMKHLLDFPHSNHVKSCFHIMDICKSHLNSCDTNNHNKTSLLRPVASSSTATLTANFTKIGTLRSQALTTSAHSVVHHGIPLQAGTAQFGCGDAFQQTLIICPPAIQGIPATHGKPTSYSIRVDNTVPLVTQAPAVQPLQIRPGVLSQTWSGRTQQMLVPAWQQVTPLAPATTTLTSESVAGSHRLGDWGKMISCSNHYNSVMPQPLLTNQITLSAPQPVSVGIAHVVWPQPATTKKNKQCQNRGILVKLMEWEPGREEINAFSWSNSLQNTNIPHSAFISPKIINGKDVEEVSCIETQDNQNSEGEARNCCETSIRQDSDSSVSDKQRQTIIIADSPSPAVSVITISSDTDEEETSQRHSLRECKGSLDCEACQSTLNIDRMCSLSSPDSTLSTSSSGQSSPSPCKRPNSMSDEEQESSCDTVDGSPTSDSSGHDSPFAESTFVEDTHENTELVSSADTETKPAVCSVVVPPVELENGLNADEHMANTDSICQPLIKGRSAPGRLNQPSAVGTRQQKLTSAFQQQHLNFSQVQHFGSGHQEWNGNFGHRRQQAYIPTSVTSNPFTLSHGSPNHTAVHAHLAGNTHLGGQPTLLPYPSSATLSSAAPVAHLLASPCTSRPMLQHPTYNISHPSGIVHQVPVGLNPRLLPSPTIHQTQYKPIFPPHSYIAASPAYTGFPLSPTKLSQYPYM
T1 sequence (Q9Y4K4 whole entry): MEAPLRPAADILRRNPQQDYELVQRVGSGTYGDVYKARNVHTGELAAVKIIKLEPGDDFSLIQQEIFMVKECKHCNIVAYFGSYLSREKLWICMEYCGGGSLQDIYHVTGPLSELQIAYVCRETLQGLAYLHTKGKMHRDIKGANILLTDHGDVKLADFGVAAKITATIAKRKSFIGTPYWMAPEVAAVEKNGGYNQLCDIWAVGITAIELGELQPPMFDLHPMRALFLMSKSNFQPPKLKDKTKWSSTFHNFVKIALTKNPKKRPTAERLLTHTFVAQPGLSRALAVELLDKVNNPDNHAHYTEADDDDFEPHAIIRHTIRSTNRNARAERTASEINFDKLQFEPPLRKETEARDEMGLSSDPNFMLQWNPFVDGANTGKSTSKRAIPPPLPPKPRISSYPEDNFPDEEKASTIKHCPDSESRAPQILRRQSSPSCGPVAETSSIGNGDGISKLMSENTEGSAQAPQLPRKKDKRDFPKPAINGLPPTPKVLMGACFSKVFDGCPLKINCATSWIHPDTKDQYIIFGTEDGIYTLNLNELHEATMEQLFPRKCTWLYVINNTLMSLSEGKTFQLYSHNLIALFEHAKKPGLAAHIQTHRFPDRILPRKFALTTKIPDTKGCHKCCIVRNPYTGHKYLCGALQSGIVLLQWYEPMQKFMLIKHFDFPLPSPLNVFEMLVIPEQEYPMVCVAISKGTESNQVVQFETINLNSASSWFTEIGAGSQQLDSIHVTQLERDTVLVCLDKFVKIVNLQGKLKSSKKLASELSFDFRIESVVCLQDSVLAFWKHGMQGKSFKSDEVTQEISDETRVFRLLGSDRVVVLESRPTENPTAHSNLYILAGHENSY
T3 sequence (Q02750 whole entry): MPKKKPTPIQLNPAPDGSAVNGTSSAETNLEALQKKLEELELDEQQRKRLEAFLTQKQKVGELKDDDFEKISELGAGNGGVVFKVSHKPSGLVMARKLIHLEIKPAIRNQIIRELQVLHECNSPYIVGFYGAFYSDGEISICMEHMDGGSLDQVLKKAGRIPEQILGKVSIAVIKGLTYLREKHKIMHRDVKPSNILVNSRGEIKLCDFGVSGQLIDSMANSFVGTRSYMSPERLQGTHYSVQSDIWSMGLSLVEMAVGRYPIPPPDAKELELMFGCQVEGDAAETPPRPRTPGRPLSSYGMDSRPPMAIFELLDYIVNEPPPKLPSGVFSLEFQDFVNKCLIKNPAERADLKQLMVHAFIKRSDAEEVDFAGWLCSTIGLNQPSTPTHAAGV
T7 sequence (P22607 23-806): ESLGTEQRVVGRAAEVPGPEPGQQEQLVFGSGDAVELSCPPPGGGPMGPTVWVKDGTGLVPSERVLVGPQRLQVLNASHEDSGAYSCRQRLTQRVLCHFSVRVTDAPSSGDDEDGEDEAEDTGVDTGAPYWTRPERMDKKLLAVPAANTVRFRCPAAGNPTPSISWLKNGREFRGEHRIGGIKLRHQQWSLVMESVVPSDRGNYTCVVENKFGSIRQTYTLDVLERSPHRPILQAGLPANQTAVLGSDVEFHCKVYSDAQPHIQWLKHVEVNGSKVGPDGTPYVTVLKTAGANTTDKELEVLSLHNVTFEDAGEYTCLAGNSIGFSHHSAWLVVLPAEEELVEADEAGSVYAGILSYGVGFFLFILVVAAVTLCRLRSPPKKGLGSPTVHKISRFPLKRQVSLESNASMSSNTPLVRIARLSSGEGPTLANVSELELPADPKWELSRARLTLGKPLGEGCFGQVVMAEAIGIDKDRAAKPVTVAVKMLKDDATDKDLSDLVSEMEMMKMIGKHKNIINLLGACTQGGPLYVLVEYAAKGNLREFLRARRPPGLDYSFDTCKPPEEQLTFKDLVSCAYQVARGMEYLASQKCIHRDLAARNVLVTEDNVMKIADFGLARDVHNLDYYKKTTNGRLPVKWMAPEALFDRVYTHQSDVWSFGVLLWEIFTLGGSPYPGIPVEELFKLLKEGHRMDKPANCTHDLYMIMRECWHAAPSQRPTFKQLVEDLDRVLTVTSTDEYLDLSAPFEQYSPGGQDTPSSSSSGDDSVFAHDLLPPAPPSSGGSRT

SMILES: CC(C)(C)C(=O)N1N=CC[C@H]1c1ccccc1 [GSK′963]
- remaining activity at 10 µM (KHS/MAP4K5; [1]): 93.8%
- remaining activity at 10 µM (KHS/MAP4K5; [2]): 91.7%
- remaining activity at 10 µM (KHS/MAP4K5; [3]): 96%
- remaining activity at 10 µM (SGK2; [1]): 107%
- remaining activity at 10 µM (SGK2; [2]): 109%
- remaining activity at 10 µM (SGK2; [3]): 106%
- remaining activity at 10 µM (MEK1; [1]): 103%
- remaining activity at 10 µM (MEK1; [2]): 103%
- remaining activity at 10 µM (MEK1; [3]): 103%
- remaining activity at 10 µM (PKCepsilon; [1]): 105%
- remaining activity at 10 µM (PKCepsilon; [2]): 103%
- remaining activity at 10 µM (PKCepsilon; [3]): 106%
- remaining activity at 10 µM (DCAMKL2; [1]): 101%
- remaining activity at 10 µM (DCAMKL2; [2]): 100%
- remaining activity at 10 µM (DCAMKL2; [3]): 102%
- remaining activity at 10 µM (HIPK3; [1]): 100%
- remaining activity at 10 µM (HIPK3; [2]): 100%
- remaining activity at 10 µM (HIPK3; [3]): 101%
- remaining activity at 10 µM (FGFR3; [1]): 99.4%
- remaining activity at 10 µM (FGFR3; [2]): 103%
- remaining activity at 10 µM (FGFR3; [3]): 95.7%
- remaining activity at 10 µM (BTK; [1]): 95.6%
- remaining activity at 10 µM (BTK; [2]): 95%
- remaining activity at 10 µM (BTK; [3]): 96.1%

Reference: publication PMC4979471 (Cell Death Discovery, 2015)
